# Laboratory results published in paper PMC6689899, “An essential bifunctional enzyme in Mycobacterium tuberculosis for itaconate dissimilation and leucine catabolism” (Proceedings of the National Academy of Sciences of the …, 2019).
# Tests used:
# [1] = molecular target: T1, Rv2498c (Mycobacterium tuberculosis, UniProt P9WPE1)
# T1 construct: gene citE
# [2] = test system: CC(=O)SCCNC(=O)CCNC(=O)[C@H](O)C(C)(C)COP(=O)(O)OP(=O)(O)OC[C@H]1O[C@@H](n2cnc3c(N)ncnc32)[C@H](O)[C@@H]1OP(=O)(O)O; assay: purified protein
# T1 sequence (P9WPE1 whole entry): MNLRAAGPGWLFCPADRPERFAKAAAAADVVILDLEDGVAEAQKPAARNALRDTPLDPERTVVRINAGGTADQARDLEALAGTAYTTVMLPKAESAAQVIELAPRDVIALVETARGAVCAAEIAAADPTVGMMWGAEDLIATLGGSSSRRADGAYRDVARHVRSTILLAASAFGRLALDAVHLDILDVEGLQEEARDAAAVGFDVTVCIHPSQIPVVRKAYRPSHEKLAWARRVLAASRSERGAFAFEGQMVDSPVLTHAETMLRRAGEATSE
Compound,X-ray crystal structure [1],Km [2],kcat/Km [2]
CC(C)(COP(=O)(O)OP(=O)(O)OC[C@H]1O[C@@H](n2cnc3c(N)ncnc32)[C@H](O)[C@@H]1OP(=O)(O)O)[C@@H](O)C(=O)NCCC(=O)NCCS [CoA],complexes with (S)-citramalyl-CoA (PDB ID code 6AQ4) and with acetoacetate:CoA (PDB ID code 6AS5),,
CC(=O)CC(=O)O [acetoacetate],complexes with (S)-citramalyl-CoA (PDB ID code 6AQ4) and with acetoacetate:CoA (PDB ID code 6AS5),,
Rv1837c (Mycobacterium tuberculosis H37Rv),,45 ± 9 µM,1.7e+06 M⁻¹ s⁻¹
